Tests used:
[1] = test system: existing sprouts on post-dormant potatoes with peeps and sprouts extant; assay: Comparison of sprout suppressing chemicals applied by thermofogging (Example VII); assay type: in vivo; details: for Burn “old”: effect upon old sprouts, up to nine months old; for Burn “old” / Burn “new”: thermofogging at comparable dosages; for Burn “new”: newly emerged sprouts and peeps, generally less than a month
Source text: Various sprout suppressing chemicals were compared for their ability to suppress existing sprouts on post-dormant potatoes with peeps and sprouts extant.
In the above table “Burn old” refers to the effect upon old sprouts, which included sprouts up to nine months old, these being generally more difficult to desiccate, while “burn new” refers to newly emerged sprouts and peeps, generally less than a month or so in existence.

[2] = test system: stored potatoes with white peeps showing from the eyes; assay: Thermofogging of 1-nonanol on bulk stored potatoes with white peeps (Example II); assay type: in vivo; details: thermofogged at about 500° F., 8 ml for 2 kg of potatoes
Procedure: Stored potatoes in bulk storage were treated with 1-nonanol (n-nonyl alcohol) via a thermofogger to determine sprout inhibition. The thermofogger was operated at an aerosol chamber temperature of about 500° F. A good stable aerosol was produced. The alcohol was applied at a dosage of 8 ml for 2 kg of potatoes. The system was open so that the actual dosage reaching the potatoes was considerably less than the fogged amount. In a first bulk storage, the potatoes had white “peeps” showing from the eyes.

[3] = test system: peeps and sprouts of stored potatoes; assay: General observations on treatment of stored potatoes with higher alcohols and 1,4-DMN; assay type: in vivo; details: 24 hours after treatment all peeps and sprouts are burned
Source text: Higher alcohols, such as 1-octanol and 1-nonanol, are miscible with 1,4-DMN.
It has been observed that the dormancy-like effect produced upon stored potatoes by 1,4-DMN remains, at least to some degree, even as the residue of 1,4-DMN becomes undetectable. Thus, by proper timing of the last treatment of stored potatoes with 1,4-DMN and a subsequent treatment with 1-octanol, 1-nonanol or 1-hexanol, alcohols which are on the GRAS list, both the washed potatoes and any discharged wash water will have no harmful chemicals present. The action of higher alcohols, such as 1-octanol, 1-nonanol and 1-hexanol, on peeps and sprouts is rapid, so that 24 hours after treatment all peeps and sprouts are “burned.”

[4] = test system: peeps and sprouts; assay: Fogging of 1-nonanol compared with clove oil in burning peeps and sprouts (Example V); assay type: in vivo, potatoes; details: similar dosages
[5] = test system: potatoes with sprouts averaging in excess of about 2 cm, some up to 8 cm or more; assay: Thermofogging on potatoes with very long sprouts (Examples III and IV); assay type: in vivo; details: for kill of large sprouts: full strength
Procedure: In another test, the potatoes were treated with 1-nonanol at the same fogging temperature and dosage for the same period of time to achieve the same application dosage as in Example II. The potatoes in this storage had sprouts averaging in excess of about 2 cm in length. In this experiment, potatoes with very long sprouts, some up to 8 cm or more, were treated 1, 2, and 4 times sequentially with full strength nonanol. This “spray-paint” method was used to try to bring the total amount (rate) of nonanol up to a level capable of killing large sprouts as well as peeps . . . a necessity in commercial settings where sprouts of all sizes exist. […] While this was a small scale test, a whole storage full of potatoes in this condition would likely lead to secondary decays.
The results of Example III led to another experiment where nonanol and DMN were applied.

[6] = test system: potatoes; assay: Thermofogging of 1-octanol on cold and warmer potatoes, damage to skin and flesh (Example IX); assay type: in vivo
Procedure: The 1-octanol was applied via an electrically […] thermofogger at a fog temperature within the fogger of about 500° F. to obtain a stable aerosol. The potatoes were examined about 24 hours after treatment. […] The potatoes were cut open at the dark spots. Damage to the flesh of the potatoes existed to a depth of about 5 mm to 25 mm. Potato flesh was otherwise undamaged except under the dark spots.

[7] = test system: sprouts on potatoes; assay: Mixtures of 1,4-DMN with octanol at various volumetric ratios, burn of sprouts (Example VIII); assay type: in vivo; set-up: key: +++: Excellent effect; ++: Very good effect; +: Good effect; —: Negligible effect; details: total dosage of each mixture constant
Source text: All mixtures provided a more rapid burn of sprouts compared with an equal dosage of octanol or 1,4-DMN alone. The 7:1 ratio of octanol to DMN gave the best results in terms of length of non-sprouting condition before nascent sprouts again appeared.

[8] = test system: potatoes; details: in vivo; cited from earlier work

Row | Compound | Burn “old” [1] | Burn “new” [1] | results among alcohols tested by Burton [8] | further results
1 | Cc1ccc(C)c2ccccc12 [1,4-DMN, 1,4 dimethyl naphthalene] | + | + |  | 
2 | CCCCCCCCCCO [1-Decanol] | ++ | ++ |  | 
3 | CCCCCCCCCO [1-Nonanol, 1-nonanol] | +++ | +++ |  | damage to potato flesh adjacent the eyes [2]: without any damage to potato flesh; effect on white peeps ([2]; open system): burned to a dark color and were inactivated; action on peeps and sprouts [3]: rapid; effectiveness in burning peeps and sprouts relative to clove oil [4]: about four times as effective as clove oil; negative side effect observed ([5]; four sequential applications): wet, slimy, sprout rot; kill of large sprouts ([5]; four sequential applications): completely killed; kill of large sprouts ([5]; single or double applications): didn't reach a level of nonanol high enough to completely kill these sized sprouts; desiccation of existing peeps and sprouts, ranking in the test ([1]; in vivo): most effectively desiccated existing peeps and sprouts
4 | CCCCCCCCO [1-Octanol, 1-octanol] | ++ | +++ |  | action on peeps and sprouts [3]: rapid; depth of damage to the flesh under the dark spots ([6]; potato, in vivo, 24 h): 5-25 mm; damage to potato skin ([6]; potatoes at about 36° F., fog about 500° F., examined about 24 hours after treatment): large dark damaged spots; injury to potato skin or flesh ([6]; potatoes held at 53° F., similar dosage, fogging temperature and rate): did not show injury to the potato skin or to its flesh
5 | CCCCCCCCO [1:0, octanol] |  |  |  | Length of Burn [7]: +++; Rapid Burn [7]: ++
6 | CCCCC(CC)CO (centres unmarked) [2-ethyl-hexan-1-01] |  |  | Worst results | 
7 | CCCCCOC(C)=O [AmylAcetate, amyl acetate] |  | ++ |  | 
8 | CCCCCCCCCCCCO [Dodecanol] | −\+ | − |  | 
9 | CCCCCCO [Hexanol, 1-hexanol] | + | ++ |  | action on peeps and sprouts [3]: rapid
10 | CCCCCO [amyl, amyl alcohol] |  |  | Best results | 
11 | CCCCCCO [n-hexyl, n-hexyl alcohol] |  |  | Worst results | 
12 | CCCCCCCCCO [nonyl, nonyl alcohol] |  |  | Best results | 

Source: patent US20140200137A1, “TREATMENT OF STORED TUBERS WITH COMPOSITIONS OF ALKYL NAPHTHALENES AND HIGHER ALCOHOLS” (1,4 Group, Inc., priority 2013, published 2014)
